Patent publication US9375416B2, “Epigallocatechin gallate tetramer and vascular endothelial function improving agent containing the same” (SUNTORY HOLDING LIMITED, priority 2008, dated 2016)

How the values were obtained:
Type in all cases: cell-based
Conditions in all cases: human umbilical vascular endothelial cells, 10 μM, 8 hours, untreated cells as control
[1] = system: eNOS gene; assay: eNOS gene expression in cultured vascular endothelial cells (quantitative PCR)
Source text: (§1) With respect to the compounds of Formula (II) and Formula (III) synthesized and purified in Example 1, the effect of them on expression of a gene involved in the vascular endothelial function was studied. Furthermore, as compounds for comparison, an EGCG monomer (manufactured by Wako Pure Chemical Industries Ltd.), theaflavin, theaflavin 3-O-gallate, theaflavin 3′-O-gallate and theaflavin 3,3′-O-digallate (manufactured by Nagara Science Co., Ltd.), which are known to have a vascular endothelial function improving action.
(§2) These compounds were dissolved in sterilized dimethyl sulfoxide (DMSO, manufactured by Nacalai Tesque Inc.) to prepare a solution having a concentration of 10 mM.
(§3) These solutions were diluted 1000 fold by using HuMedia-EG2 medium (manufactured by Kurabo Industries Ltd.) to prepare a solution having a final concentration of 10 μM (the final concentration of DMSO was 0.1 V/V %). These sample solutions each were added to human umbilical vascular endothelial cells (manufactured by Kurabo Industries Ltd.) cultured in a 6-well plate in a proportion of 3 mL/well and incubated at 37° C. under 5% CO2 conditions for 8 hours.
(§4) The cells were recovered by ISOGEN (manufactured by Nippon Gene Co., Ltd.) and RNA was extracted from the cells. Furthermore, RNA was purified by RNeasy Mini Kit (QIAGEN). cDNA was synthesized by a High-Capacity cDNA reverse transcription kit (manufactured by Applied Biosystem) using the total RNA (200 ng) purified as a template and quantitative PCR was performed. Analysis was performed by comparative Ct method with a glyceraldehyde-3-phosphate dehydrogenase gene used as an internal standard. The gene expression change ratio (ratio relative to the control) of a test sample was calculated by using untreated cells as a control.

[2] = system: Nox4 subunit gene of NADPH oxidase; assay: Expression of Nox4 subunit gene of NADPH oxidase in cultured vascular endothelial cells (quantitative PCR)
Source text: as §1, §2, §3, §4

[3] = system: GTP-CH1 gene; assay: GTP-CH1 gene expression in cultured vascular endothelial cells (quantitative PCR)
Source text: as §1, §2, §3, §4

[4] = system: DDAH2 gene; assay: DDAH2 gene expression in cultured vascular endothelial cells (quantitative PCR)
Source text: as §1, §2, §3, §4

O=C(OC1Cc2c(O)cc(O)c(Cc3c(O)cc(O)c4c3OC(c3cc(O)c(O)c(O)c3)C(OC(=O)c3cc(O)c(O)c(O)c3)C4)c2OC1c1cc(O)c(O)c(O)c1)c1cc(O)c(O)c(O)c1 (centres unmarked) [oolong homobisflavan-A, oolong homobisflavan A]
do not substantially change: expression of the eNOS gene (gene expression change ratio relative to the control) [1] | expression of Nox4 subunit gene of NADPH oxidase (gene expression change ratio relative to the control) [2] | expression of the GTP-CH1 gene (gene expression change ratio relative to the control) [3] | expression of the DDAH2 gene (gene expression change ratio relative to the control) [4]

O=C(OC1Cc2c(cc(O)c(Cc3c(O)cc(O)c4c3OC(c3cc(O)c(O)c(O)c3)C(OC(=O)c3cc(O)c(O)c(O)c3)C4)c2O)OC1c1cc(O)c(O)c(O)c1)c1cc(O)c(O)c(O)c1 (centres unmarked) [oolong homobisflavan-B]
do not substantially change: expression of the eNOS gene (gene expression change ratio relative to the control) [1] | expression of Nox4 subunit gene of NADPH oxidase (gene expression change ratio relative to the control) [2] | expression of the GTP-CH1 gene (gene expression change ratio relative to the control) [3] | expression of the DDAH2 gene (gene expression change ratio relative to the control) [4]

O=C(O[C@@H]1Cc2c(cc(O)c(Cc3c(O)cc4c(c3O)C[C@@H](OC(=O)c3cc(O)c(O)c(O)c3)[C@@H](c3cc(O)c(O)c(O)c3)O4)c2O)O[C@@H]1c1cc(O)c(O)c(O)c1)c1cc(O)c(O)c(O)c1 [oolong homobisflavan-C]
do not substantially change: expression of the eNOS gene (gene expression change ratio relative to the control) [1] | expression of Nox4 subunit gene of NADPH oxidase (gene expression change ratio relative to the control) [2] | expression of the GTP-CH1 gene (gene expression change ratio relative to the control) [3] | expression of the DDAH2 gene (gene expression change ratio relative to the control) [4]

O=C(O[C@@H]1Cc2c(O)cc(O)cc2O[C@@H]1c1cc(O)c(O)c(O)c1-c1c([C@H]2Oc3cc(O)cc(O)c3C[C@H]2OC(=O)c2cc(O)c(O)c(O)c2)cc(O)c(O)c1O)c1cc(O)c(O)c(O)c1 [theasinensin A]
do not substantially change: expression of the eNOS gene (gene expression change ratio relative to the control) [1] | expression of Nox4 subunit gene of NADPH oxidase (gene expression change ratio relative to the control) [2] | expression of the GTP-CH1 gene (gene expression change ratio relative to the control) [3] | expression of the DDAH2 gene (gene expression change ratio relative to the control) [4]

(−)-epigallocatechin-3-O-gallate [EGCG monomer]
do not substantially change: expression of the eNOS gene (gene expression change ratio relative to the control) [1] | expression of Nox4 subunit gene of NADPH oxidase (gene expression change ratio relative to the control) [2] | expression of the GTP-CH1 gene (gene expression change ratio relative to the control) [3] | expression of the DDAH2 gene (gene expression change ratio relative to the control) [4]
